Data from PMC7986984 (Brain, behavior, and immunity, 2020).
Like-named read-outs stand apart in the source and are kept apart here. Marks after values point to notes of the source that are not given here.

How the values were obtained:
[1] = format: in vivo, mice; details: for AUC: over 24 h; for Cmax: n = 6 +/- SEM
[2] = format: in vivo, mice; details: for AUC: over 24 h; for Cmax: mice, bolus by oral gavage, 0.25-24 h, n = 6 +/- SEM
[3] = male, mouse, brain, po, AUC, Chronic BDPP
[4] = male, mouse, brain, po, AUC, Chronic Synbiotic
[5] = male, mouse, brain, po, Cmax, Chronic BDPP
[6] = male, mouse, brain, po, Cmax, Chronic Synbiotic
[7] = male, mouse, brain, po, Tmax, Chronic BDPP
[8] = male, mouse, brain, po, Tmax, Chronic Synbiotic
[9] = male, mouse, plasma, po, AUC, Chronic BDPP
[10] = male, mouse, plasma, po, AUC, Chronic Synbiotic
[11] = male, mouse, plasma, po, Tmax, Chronic BDPP
[12] = male, mouse, plasma, po, Tmax, Chronic Synbiotic

Row | Compound | AUC [1, 3] | AUC [1, 4] | Cmax [1, 5] | Cmax [1, 6] | Tmax [1, 7] | Tmax [1, 8] | AUC [2, 9] | AUC [2, 10] | Tmax [2, 11] | Tmax [2, 12] | also measured
1 | O=C(O)Cc1ccc(O)c(O)c1 [3,4-diHPAA, 3,4-Dihydroxyphenylacetic acid] | 2.2 µg·h/mL | 2.12 µg·h/mL | 100 ± 7 ng/mL | 126 ± 24 ng/mL | 60 min | 120 min | 0.74 µg·h/mL | 0.344 µg·h/mL | 30 min | 30 min | –
2 | O=C(O)CCc1cccc(O)c1 [3-HPPA, 3-(3-Hydroxyphenyl)propionic acid] | – | – | – | – | – | – | 0.0047 µg·h/mL | 0.06 µg·h/mL | 60 min | 120 min | –
3 | O=C(O)C=Cc1ccc(O)cc1 [4-HCA, 4-Hydroxycinnamic acid] | – | – | – | – | – | – | 0.455 µg·h/mL | 1.67 µg·h/mL | 18 min | 18 min | –
4 | O=C(O)CNC(=O)c1ccc(O)cc1 [4-HHA, 4-Hydroxyhippuric acid] | – | – | – | – | – | – | 0.0017 µg·h/mL | 0.0059 µg·h/mL | 18 min | 120 min | –
5 | COc1cc(/C=C/C(=O)O)ccc1O [FA, Ferulic acid] | – | – | – | – | – | – | – | – | – | – | Tmax ([1]; Brain, Chronic BDPP): 30 min; Cmax ([1]; Brain, Chronic BDPP): 1.5 ± 0.3 ng/mL; AUC ([1]; Brain, Chronic BDPP): 0.0188 µg·h/mL; Tmax ([1]; Brain, Chronic Synbiotic): 120 min; Cmax ([1]; Brain, Chronic Synbiotic): 0.0023 ± 0.0006 ng/mL; AUC ([1]; Brain, Chronic Synbiotic): 0.02 µg·h/mL; Tmax ([2]; Plasma, Chronic BDPP): 30 min; Cmax ([2]; Plasma, Chronic BDPP): 28.9 ± 9.7 ng/mL; AUC ([2]; Plasma, Chronic BDPP): 320.9** ng/mL*h; Tmax ([2]; Plasma, Chronic Synbiotic): 30 min; Cmax ([2]; Plasma, Chronic Synbiotic): 0.0226 ± 0.0062 ng/mL; AUC ([2]; Plasma, Chronic Synbiotic): 0.1388 µg·h/mL
6 | COc1cc(CCC(=O)O)ccc1O [DHFA, Dihyroferulic acid] | – | – | – | – | – | – | – | – | – | – | Tmax ([2]; Plasma, Chronic BDPP): 18 min; Cmax ([2]; Plasma, Chronic BDPP): 2.5 ± 0.7 ng/mL; AUC ([2]; Plasma, Chronic BDPP): 0.0307 µg·h/mL; Tmax ([2]; Plasma, Chronic Synbiotic): 18 min; Cmax ([2]; Plasma, Chronic Synbiotic): 0.0077 ± 0.0011 ng/mL; AUC ([2]; Plasma, Chronic Synbiotic): 0.0302 µg·h/mL
7 | Oc1cc(O)c2c(c1)O[C@H](c1ccc(O)c(O)c1)[C@H](O)C2 [EC, Epicatechin] | – | – | – | – | – | – | 0.189 µg·h/mL | 0.413 µg·h/mL | 18 min | 18 min | –
8 | Oc1cc(O)c2c(c1)OC(c1ccc(O)c(O)c1)C(O)C2 (centres unmarked) [C, Catechin] | – | – | – | – | – | – | – | – | – | – | Tmax ([2]; Plasma, Chronic BDPP): 30 min; Cmax ([2]; Plasma, Chronic BDPP): 55.5 ± 7.8 ng/mL; AUC ([2]; Plasma, Chronic BDPP): 80.6** ng/mL*h; Tmax ([2]; Plasma, Chronic Synbiotic): 60 min; Cmax ([2]; Plasma, Chronic Synbiotic): 0.0098 ± 0.0007 ng/mL; AUC ([2]; Plasma, Chronic Synbiotic): 0.0252 µg·h/mL
9 | Oc1ccc(/C=C/c2cc(O)cc(O)c2)cc1 [RSV, t-Resveratrol (−)] | – | – | – | – | – | – | – | – | – | – | Tmax ([1]; Brain, Chronic BDPP): 18 min; Cmax ([1]; Brain, Chronic BDPP): 9.5 ± 2.5 ng/mL; AUC ([1]; Brain, Chronic BDPP): 122.3** ng/mL*h; Tmax ([1]; Brain, Chronic Synbiotic): 120 min; Cmax ([1]; Brain, Chronic Synbiotic): 0.0038 ± 0.0002 ng/mL; AUC ([1]; Brain, Chronic Synbiotic): 0.0331 µg·h/mL; Tmax ([2]; Plasma, Chronic BDPP): 30 min; Cmax ([2]; Plasma, Chronic BDPP): 11628.0 ± 1788.0 ng/mL; AUC ([2]; Plasma, Chronic BDPP): 51313.0* ng/mL*h; Tmax ([2]; Plasma, Chronic Synbiotic): 30 min; Cmax ([2]; Plasma, Chronic Synbiotic): 15.785 ± 4.246 ng/mL; AUC ([2]; Plasma, Chronic Synbiotic): 33.1507 µg·h/mL
10 | Oc1ccc(CCc2cc(O)cc(O)c2)cc1 [DHRSV, Dihydroresveratrol] | – | – | – | – | – | – | 1.05 µg·h/mL | 7.8 µg·h/mL | 60 min | 480 min | –
11 | O=C(O)c1cccc(O)c1 [3-HBA, 3-Hydroxybenzoic acid] | 0.0673 µg·h/mL | 0.146 µg·h/mL | 5.4 ± 0.4 ng/mL | 8.9 ± 1.8 ng/mL | 30 min | 240 min | 0.366 µg·h/mL | 0.214 µg·h/mL | 60 min | 60 min | –
12 | O=C(O)c1ccc(O)cc1 [4-HBA, 4-Hydroxybenzoic acid] | 1.7 µg·h/mL | 6.68 µg·h/mL | 108 ± 19.3 ng/mL | 448 ± 15 ng/mL | 0 min | 480 min | 0.866 µg·h/mL | 1.28 µg·h/mL | – | 1440 min | –
13 | O=C(O)Cc1cccc(O)c1 [3-HPAA, 3-Hydroxyphenylacetic acid] | 0.029 µg·h/mL | 0.0412 µg·h/mL | 2.7 ± 0.3 ng/mL | 3.2 ± 0.5 ng/mL | 30 min | 30 min | 0.606 µg·h/mL | 1.08 µg·h/mL | 60 min | 18 min | –
14 | O=C(O)Cc1ccccc1 [PA, Phenylacetic acid] | 6970 µg·h/mL | 14500 µg·h/mL | 447000 ± 37200 ng/mL | 760000 ± 140000 ng/mL | 30 min | 480 min | 8630 µg·h/mL | 8800 µg·h/mL | 30 min | 240 min | –
15 | O=C(O)c1ccc(O)c(O)c1 [3,4-diHBA, 3,4-Dihydroxybenzoic acid] | 0.0881 µg·h/mL | 0.291 µg·h/mL | 15.2 ± 3.1 ng/mL | 14.4 ± 3.8 ng/mL | 18 min | 30 min | 0.138 µg·h/mL | 0.0334 µg·h/mL | 18 min | 18 min | –
16 | COc1c(O)cc(C(=O)O)cc1O [4-MeGA, 4-O-Methylgallic acid] | 0.0033 µg·h/mL | 0.0068 µg·h/mL | 2.2 ± 0.4 ng/mL | 5 ± 1 ng/mL | 30 min | 18 min | 0.336 µg·h/mL | 0.163 µg·h/mL | 30 min | 30 min | –
17 | O=C1CCC(Cc2ccc(O)c(O)c2)O1 (centres unmarked) [DHVL, 5-(3′,4′-Dihydroxyphenyl)-γ-valerolactone] | – | – | – | – | – | – | 0.123 µg·h/mL | 0.224 µg·h/mL | 30 min | 60 min | –
18 | Oc1cc(O)c2c(c1)O[C@H](c1ccc(O)c(O)c1)[C@H](O)[C@H]2c1c(O)cc(O)c2c1O[C@H](c1ccc(O)c(O)c1)[C@H](O)C2 [PAC-B2, Proanthocyanidin dimer B2] | – | – | – | – | – | – | – | – | – | – | Tmax ([2]; Plasma, Chronic BDPP): 30 min; Cmax ([2]; Plasma, Chronic BDPP): 2.0 ± 0.7 ng/mL; AUC ([2]; Plasma, Chronic BDPP): 0.0015 µg·h/mL; Tmax ([2]; Plasma, Chronic Synbiotic): 30 min; Cmax ([2]; Plasma, Chronic Synbiotic): 0.0027 ± 0.0008 ng/mL; AUC ([2]; Plasma, Chronic Synbiotic): 3.5* ng/mL*h

Now from value to compound, other results behind:

Row | AUC [1, 3] | AUC [1, 4] | Cmax [1, 5] | Cmax [1, 6] | Tmax [1, 7] | Tmax [1, 8] | AUC [2, 9] | AUC [2, 10] | Tmax [2, 11] | Tmax [2, 12] | Compound | also measured
19 | 0.518 µg·h/mL | 1.81 µg·h/mL | 22.4 ± 11.6 ng/mL | 111 ± 7.2 ng/mL | 60 min | 480 min | 0.889 µg·h/mL | 1.32 µg·h/mL | 60 min | 240 min | O=C(O)CNC(=O)c1ccccc1 [HA, Hippuric acid] | –
20 | 0.169 µg·h/mL | 0.205 µg·h/mL | 9.7 ± 1 ng/mL | 13.9 ± 1.8 ng/mL | 18 min | 60 min | 0.299 µg·h/mL | 0.118 µg·h/mL | 30 min | 18 min | COc1cc(C(=O)O)ccc1O [VA, Vanillic acid] | –
21 | 0.0978 µg·h/mL | 0.578 µg·h/mL | 86.5 ± 38 ng/mL | 118 ± 18 ng/mL | 18 min | 60 min | 0.0853 µg·h/mL | 0.305 µg·h/mL | 30 min | 18 min | O=c1c(O)c(-c2cc(O)c(O)c(O)c2)oc2cc(O)cc(O)c12 [MYR, Myricetin] | –
22 | 5.92 µg·h/mL | 6.22 µg·h/mL | 296 ± 10 ng/mL | 301 ± 14 ng/mL | 60 min | 60 min | 0.205 µg·h/mL | 1.47 µg·h/mL | 60 min | 30 min | COc1cc(CC(=O)O)ccc1O [HVA, Homovanillic acid] | –
23 | 7.56 µg·h/mL | 4.76 µg·h/mL | 1340 ± 611 ng/mL | 336 ± 112 ng/mL | 18 min | 120 min | 1.27 µg·h/mL | 2.39 µg·h/mL | 18 min | – | O=C(O)c1cc(O)c(O)c(O)c1 [GA, Gallic acid] | –
24 | 0.142 µg·h/mL | 0.544 µg·h/mL | 89.5 ± 48.3 ng/mL | 98.6 ± 24.7 ng/mL | 18 min | 120 min | 0.0461 µg·h/mL | 0.583 µg·h/mL | 18 min | 18 min | O=c1c(O)c(-c2ccc(O)c(O)c2)oc2cc(O)cc(O)c12 [QUER, Quercetin] | –
